In US5541190A, “Benzo(F)quinolinones” (priority 1995, dated 1996):

Biological target: T1, 5α-reductase (Homo sapiens, UniProt P18405)
T1 construct: host or cells: Hs68 human genital skin fibroblasts
T1 sequence (P18405 1-259): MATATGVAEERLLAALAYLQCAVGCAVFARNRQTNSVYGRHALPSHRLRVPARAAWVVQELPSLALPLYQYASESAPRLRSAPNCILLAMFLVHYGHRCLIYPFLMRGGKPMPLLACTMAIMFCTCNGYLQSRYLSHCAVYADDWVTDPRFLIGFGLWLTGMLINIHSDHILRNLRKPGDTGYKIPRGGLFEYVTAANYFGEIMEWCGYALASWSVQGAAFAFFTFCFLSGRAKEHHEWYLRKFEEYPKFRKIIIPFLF
Assay: Inhibition of 5α-reductase activity (testosterone to 5α-dihydrotestosterone conversion) in Hs68 human genital skin fibroblasts
Format: cell-based
Conditions: 0.316 μM test compound, 12 μM testosterone substrate, four hours
Experimental: Cell Culture:5α-Reductase activity was measured using Hs68 human genital skin fibroblasts which were originally purchased from the American Type Culture Collection (Rockville, Md.). The cells were grown in Dulbecco's Modified Eagle's Medium (DMEM) plus 10% stripped fetal bovine serum which was supplemented with amphotericin B (0.25 mg/ml) and gentamicin (25.0 mg/ml) (GIBCO, Grand Island, N.Y.). The serum was stripped of endogenous steroids by incubation with dextran-coated charcoal prior to its addition to the media. The cells were maintained at 37° C. in an atmosphere of 95% air, 5% CO2 and were passaged every 7-10 days by exposure to a trypsin-EDTA solution (0.025% trypsin, 0.265 mM EDTA). Prior to the assay the Hs68 cells were harvested and plated in Falcon 6-well plates (Becton Dickinson Labware, Lincoln Park, N.J.) at a density of 6×10^4 cells per well. The cells were allowed to grow for 4-5 days or until they reached approximately 80% confluence.
Assay Method I:The substrate was prepared by dissolving unlabeled testosterone (Sigma Chemical Co., St. Louis, Mo.) in absolute ethanol followed by the addition of [7-^3 H (N)]-testosterone (23.3 Ci/mmole, New England Nuclear, Boston, Mass.). The steroid solution was taken to dryness under a stream of nitrogen and then reconstituted in media.
Assay Method II:The substrate used for this method was [^14 C]-testosterone (50 mCi/mmol) (New England Nuclear, Boston, Mass.). An aliquot of the substrate was taken to dryness under a stream of nitrogen. After the addition of 30 μl of ethanol, the testosterone was dissolved in an appropriate volume of media.
Sample Preparation:The test compounds were brought up in absolute ethanol in order to achieve the desired concentration. Subsequent dilutions of the test compounds with media were performed by the Biomek 1000 Automated Laboratory Workstation (Beckman Instruments, Palo Alto, Calif.). The existing media in the sample wells was aspirated and replaced with fresh media. Test compound was then added to the wells followed by the addition of 0.5 ml of substrate. The volume of the incubation mixture was maintained at 2.0 ml. The final substrate concentration was 12 μM. The concentration of the test compounds ranged from 0.001-150 μM. An additional three wells (background) containing media and substrate but no cells were also included to account for the non-enzymatic metabolism of the substrate. The plates were returned to the incubator and incubated for four hours.
At the end of the incubation the media was collected and transferred to an extraction tube containing 5 ml of toluene-ethanol (9:1), to which has been added 20-250 μg each. of unlabeled carrier steroids (estriol, estradiol, estrone, 5α-androstan-3α,17β-diol, 5α-androstan-3β,17β-diol, -androstene-3,17-dione, 5α-androstan-3,17-dione, testosterone, and 5α-dihydrotestosterone) (Steraloids, Inc., Wilton, N.H.). In the case of Assay Method I the extraction tube also contained 1,000 and 10,000 dpm of [4-^14 C]-dihydrotestosterone (50-60 mCi/mmol) and [4-^14 C]-testosterone (50 mCi/mmol) (New England Nuclear, Boston, Mass.), respectively. The [^14 C]-steroids were included as recovery standards to quantify procedural losses. A small amount of NaCl was also added to the extraction tubes to prevent foaming. The samples were vortexed for approximately 30 seconds and then centrifuged for 10 minutes at 500×g. The organic phase was collected and the samples taken to dryness, redissolved in dichloromethane-methanol (9:1) and were analyzed by thin layer chromatography using one of the methods described below.
Chromatography Method I (two-dimensional):The extracted samples were appled to silica gel 60F254, 0.25 mm thick, thin layer chromatography plates (EM Science, Cincinnati, Ohio). The plates were developed in the first dimension with a solvent system containing dichloromethaneethyl acetate-methanol-acetic acid (160:38:1.5:0.5, Mallinckrodt Inc., Paris, Ky.).

Structure (SMILES) | inhibition at 0.316 µM [%]
C[C@@H]1C[C@@H]2c3ccc(Cl)cc3CC[C@H]2N(C)C1=O (relative stereo) [Example 26A, trans-dl-8-chloro-2-(α-methyl)-4-methyl-1,2,3,4,4a,5,6,10b-octahydrobenzo[f]quinolin-3-one] | 82.6
C[C@H]1C[C@@H]2c3ccc(Cl)cc3CC[C@H]2N(C)C1=O (relative stereo) [Example 26B, trans-dl-8-chloro-2-(β-methyl)-4-methyl-1,2,3,4,4a,5,6,10b-octahydrobenzo[f]quinolin-3-one] | 76.4
CN1C(=O)CC[C@H]2c3ccc(Br)cc3C(C)(C)C[C@@H]21 (relative stereo) [Example 28, trans-dl-8-bromo-4,6,6-trimethyl-1,2,3,4,4a,5,6,10b-ocathydrobenzo[f]quinolin-3-one] | 78
CN1C(=O)CC[C@H]2c3ccc(Br)cc3C(C)(C)C[C@H]21 (relative stereo) [Example 29, cis-dl-8-bromo-4,6,6-trimethyl-1,2,3,4,4a,5,6,10b-octahydrobenzo[f]quinolin-3-one] | 56.1
C[C@]12CCC(=O)N[C@@H]1CCc1cc(Cl)ccc12 (relative stereo) [Example 40, Trans-8-chloro-10b-methyl-1,2,3,4,4a,5,6,10-octhydrobenzo[f]-quinolin-3-one] | 25.6
COc1ccc(CN2C(=O)CC[C@@]3(C)c4ccc(Cl)cc4CC[C@H]23)cc1 (relative stereo) [Example 44, Trans-4-(4-methoxybenzyl)-8-chloro-10b-methyl-1,2,3,4,4a,5,6,10b-octahydrobenzo[f]quinolin-3-one] | 5.7

Same assay, conditions: 1.00 μM test compound, 12 μM testosterone substrate, four hours

Structure (SMILES) | inhibition at 1 µM [%]
CN1C(=O)CC[C@H]2c3ccc(Cl)cc3CC[C@@H]21 (relative stereo) [Example 6, trans-dl-8-chloro-4-methyl-1,2,3,4,4a,5,6,10b-octahydrobenzo[f]quinolin-3-one] | 100
CN1C(=O)CC[C@H]2c3ccccc3CC[C@@H]21 (relative stereo) [Example 12, trans-dl-4-methyl-1,2,3,4,4a,5,6,10b-octahydrobenzo[f]quinolin-3-one] | 78.7
CN1C(=O)CC[C@H]2c3ccccc3CC[C@H]21 (relative stereo) [Example 13, cis-dl-4-methyl-1,2,3,4,4a,5,6,10b-octahydrobenzo[f]quinolin-3-one] | 32
CN1C(=O)CC[C@]2(C)c3ccc(Cl)cc3CC[C@H]12 (relative stereo) [Example 35, cis-dl-8-chloro-4,10b-dimethyl-1,2,3,4,4a,5,6,10b-octahydrobenzo[f]quinolin-3-one] | 76.2
CN1C(=O)CC[C@@]2(C)c3ccccc3CC[C@H]12 (relative stereo) [Example 37, trans-dl-4,10b-dimethyl-1,2,3,4,4a,5,6,10b-octahydrobenzo[f]quinolin-3-one] | 40

Same assay, conditions: 15.00 μM test compound, 12 μM testosterone substrate, four hours

Structure (SMILES) | inhibition at 15 µM [%]
C[C@]12CCC(=O)N[C@H]1CCc1cc(Cl)ccc12 (relative stereo) [Example 41, cis-8-chloro-10b-methyl-1,2,3,4,4a,5,6,10-octahydrobenzo[f]quinolin-3-one] | 58.4
O=C1CC[C@H]2c3cc([N+](=O)[O-])ccc3CC[C@@H]2N1 (relative stereo) [Example 46, trans-dl-9-nitro-1,2,3,4,4a,5,6,10b-octahydrobenzo[f]quinolin-3-one] | 69.9
